These results are taken from patent US20240285571A1, “METHODS OF TREATING BONE INFECTIONS” (MICROBION CORPORATION, priority 2020, published 2024).

Holding throughout (format): cell-based
Assay [1] deals with relevant ATCC QC organisms. Nature of the assay: Broth microdilution MIC, QC (Example 6). The following applies: S. aureus ATCC 29213. An outline of the steps:
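QC strains were tested per CLSI broth microdilution in cation-adjusted Mueller Hinton broth, with Ca2+ supplemented for daptomycin, at about 5×10^5 CFU/mL. Incubation was at 35° C for 16–20 hr, or 24 hr for vancomycin against S. aureus. The MIC was the lowest concentration inhibiting visible growth.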
(In broth dilution the organism is exposed to a series of concentrations in liquid medium.)

The subject of a further assay is Escherichia coli. Description: Broth microdilution MIC (Example 6). The following applies: Escherichia coli, ESBL, read-out: MIC. As to the method:
(§1) Test Compounds: The test agents BisEDT (MB-1-B3; Lot No. ED268-1-11-01), MB-2B, and MB-6 were stored at room temperature, in the dark, until assayed.
(§2) For testing daptomycin, calcium was supplemented with […] Ca^2+, resulting in a final concentration of […] Ca^2+ (2, 3).
(§3) MIC Assay Procedure: MIC values were determined using a broth microdilution procedure described by CLSI (2, 3).
(§4) The Biomek 2000 was then used to make 2-fold serial dilutions in the mother plates from column 1 through column 11. The wells of column 12 contained no drug and served as the organism growth control wells for the assay.
(§5) The test panels were prepared on the Biomek FX instrument which transferred 2 μL of drug solution from each well of a mother plate to the corresponding well of each daughter plate in a single step.
(§6) A standardized inoculum of each test organism was prepared per CLSI methods to equal a 0.5 McFarland standard, followed by a dilution of 1:20. The plates were then inoculated with 10 μL of the diluted inoculum using the Biomek 2000 from low to high drug concentration resulting in a final concentration of approximately 5×10^5 CFU/mL.
(§7) Plates were stacked 3-4 high, covered with a lid on the top plate, placed into plastic bags, and incubated at 35° C. for 16 to 20 hr (vancomycin was read for S. aureus after 24 hr incubation time). The MIC was recorded as the lowest concentration of drug that inhibited visible growth of the organism.

The subject of a further assay is Klebsiella pneumoniae. Description: Broth microdilution MIC (Example 6). The note with it: Klebsiella pneumoniae, read-out: MIC. As for the experimental part: as §1, §2, §3, §4, §5, §6, §7
A further assay has as its system Pseudomonas aeruginosa. Description: Broth microdilution MIC (Example 6). The note with it: Pseudomonas aeruginosa, P. aeruginosa isolate CDC 241, β-lactamase type IMP/OXA; read-out: MIC. As to the method: as §1, §2, §3, §4, §5, §6, §7
A further assay concerns Acinetobacter baumannii. Nature of the assay: Broth microdilution MIC (Example 6). The note with it: Acinetobacter baumannii. An outline of the steps: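 CLSI broth microdilution in cation-adjusted Mueller Hinton broth, test agents 0.06-64 μg/mL from DMSO stocks, inoculum approx. 5×10^5 CFU/mL. Incubation 35° C for 16–20 hr; MIC taken as lowest concentration inhibiting visible growth.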

Where two headings read alike, the source gives them in different places.

The MIC is the lowest concentration found to suppress growth. On to `CCC[C@@H]1C[C@@H](C(=O)N[C@@H]([C@H]2O[C@H](SC)[C@H](O)[C@@H](O)[C@H]2O)[C@H](C)Cl)N(C)C1` [CLI], for which the MIC in assay [1] came to 0.25 µg/mL.

For the compound `CC(S)C(C)S.[Bi]` (stereo not drawn) [MB-6, bismuth-2,3-butanedithiol], the MIC worked out at 1 µg/mL with Escherichia coli (ATCC35218, E. coli ATCC 35218); 2 µg/mL in the assay on Escherichia coli (E. coli MMX 5755); 1 µg/mL in the assay on Escherichia coli (E. coli MMX 5756); 4 µg/mL in the assay on Klebsiella pneumoniae (K. pneumoniae CDC 135, ESBL/VIM); 2 µg/mL with Klebsiella pneumoniae (K. pneumoniae MMX 9029, ESBL); 8 µg/mL in the assay with Pseudomonas aeruginosa. Besides, the MIC in the assay on Acinetobacter baumannii (A. baumannii isolate CDC 273, β-lactamase type ESBL/OXA) stood at 0.5 µg/mL; in the assay on Acinetobacter baumannii (A. baumannii isolate CDC 274, β-lactamase type ESBL/OXA) it was 0.5 µg/mL; in the assay on Acinetobacter baumannii (A. baumannii isolate CDC 275, β-lactamase type ESBL/OXA), 0.5 µg/mL; with Acinetobacter baumannii (A. baumannii isolate CDC 277, β-lactamase type ESBL/OXA), 1 µg/mL; in the assay with Acinetobacter baumannii (A. baumannii isolate CDC 284, β-lactamase type ESBL/OXA), 1 µg/mL; in the assay with Acinetobacter baumannii (A. baumannii isolate CDC 307, β-lactamase type OXA) it was 0.5 µg/mL. Also, the MIC with Acinetobacter baumannii (A. baumannii isolate CDC 308, β-lactamase type ESBL/OXA) was determined as 0.5 µg/mL; with Acinetobacter baumannii (A. baumannii isolate CDC 311, β-lactamase type OXA), 0.5 µg/mL; in the assay with Acinetobacter baumannii (A. baumannii isolate CDC 312, β-lactamase type OXA) it was 0.5 µg/mL; in the assay with Acinetobacter baumannii (A. baumannii isolate CDC 313, β-lactamase type ESBL/OXA), 0.5 µg/mL; in the assay on Acinetobacter baumannii (NCTC13304, A. baumannii isolate NCTC 13304, β-lactamase type OXA) it was 0.5 µg/mL.
